Assay results taken from ChEMBL document CHEMBL4371079, “Improved synthesis, resolution, absolute configuration determination and biological evaluation of HLM006474 enantiomers” (Bioorg Med Chem Lett, 2019).
Active and inactive are the calls of the source. The rule behind the calls is not given here.

Biological target: Transcription factor E2F1 (Homo sapiens) (UniProt Q01094)
Test: Inhibition of E2F1 transcriptional activity (unknown origin) expressed in HEK293 cells at 10 uM measured after 48 hrs by luciferase reporter gene assay
Format: cell-based

Transcription factor E2F1 (Homo sapiens), sequence (Q01094 whole entry): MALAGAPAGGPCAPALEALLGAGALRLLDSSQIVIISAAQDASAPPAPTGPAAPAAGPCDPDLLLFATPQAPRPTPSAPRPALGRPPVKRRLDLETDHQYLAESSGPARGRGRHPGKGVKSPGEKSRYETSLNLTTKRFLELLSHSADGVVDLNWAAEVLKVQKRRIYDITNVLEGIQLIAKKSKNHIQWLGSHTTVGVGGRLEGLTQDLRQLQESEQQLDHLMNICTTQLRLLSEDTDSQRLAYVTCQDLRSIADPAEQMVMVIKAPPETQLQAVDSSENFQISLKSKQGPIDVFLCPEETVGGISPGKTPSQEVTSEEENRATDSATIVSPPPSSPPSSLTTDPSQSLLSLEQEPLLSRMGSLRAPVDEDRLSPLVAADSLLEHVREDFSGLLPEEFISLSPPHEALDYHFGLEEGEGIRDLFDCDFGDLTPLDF

inhibition	SMILES
Active	CCOc1ccc([C@@H](Nc2ccccn2)c2ccc3ccc(C)nc3c2O)cc1C
inactive	CCOc1ccc([C@H](Nc2ccccn2)c2ccc3ccc(C)nc3c2O)cc1C
Active	CCOc1ccc(C(Nc2ccccn2)c2ccc3ccc(C)nc3c2O)cc1C (racemic)
